Results: publication PMC8624998, “Synthesis and Antiproliferative Evaluation of 3-Chloroazetidin-2-ones with Antimitotic Activity: Heterocyclic Bridged Analogues of Combretastatin A-4” (Pharmaceuticals, 2021)
Like-named read-outs stand apart in the source and are kept apart here.

Key:
MCF-7 cells = experiment: Cell viability assay (MTT/AlamarBlue), antiproliferative activity; format: cell-based, human; conditions: read-out: IC50 (MCF-7, 72 h)
Procedure, shortened: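 MCF-7 cells seeded, left 24 h at 37 °C, then exposed 72 h to compound (1 nM–200 μM, or 0.001–100 μM) in ethanol or DMSO vehicle (≤1% ethanol, 0.1% DMSO). Viability read by MTT (1 mg/mL final, 3 h) or AlamarBlue (10% v/v, 3–5 h), relative to untreated controls as 100%.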

[1] = test system: microtubule network of MCF-7 cells; experiment: Immunofluorescence (confocal) of microtubule network; format: cell-based, human; conditions: MCF-7, 16 h; 10n 0.05, 0.1, 0.5 μM; CA-4 10 nM; paclitaxel 1 μM
Experimental: Subsequently, the effect of the representative compound 10n on the organisation of microtubule cytoskeleton of MCF-7 cells was also determined by confocal microscopy using an anti-tubulin antibody (Figure 8). […] The MCF-7 cell nuclei (stained blue) were also clearly observed (Figure 8A). […] The treatment of MCF-7 breast cancer cells with CA-4 tubulin-targeting agents has been reported to result in the formation of multiple micronuclei and mitotic catastrophes.
Confocal microscopy was used to study the effects on MCF-7 cytoskeleton following treatment with compound 10n following the protocols previously reported. For each experiment, all images were collected on the same day using identical parameters. MCF-7 cells were seeded (1 × 10^5 cells/mL) on eight chamber glass slides. Cells were either untreated or treated with vehicle (1% ethanol (v/v)), CA-4 (10 nM), Paclitaxel (1 μM) and β-lactam compound 10n at 50 nM, 100 nM and 500 nM concentrations for 16 h. The cells were then gently washed in PBS and then fixed for 30 min with 100% ice-cold MeOH. Cells were washed three times in PBS for 10 min and then permeabilised in 0.5% Triton X-100. The cells were subsequently washed in PBS containing 0.1% Tween (PBST), and then blocked in bovine serum albumin (5%) diluted in PBST. Cells were then incubated with a mouse monoclonal anti-α-tubulin−FITC antibody (clone DM1A) (1:200) for 2 h at 20 °C. Following washes in PBST, cells were incubated with Alexa Fluor 488 dye (1:500) for 1 h at 20 °C. Following further washes in PBST, the cells were mounted in Ultra Cruz Mounting Media, which contained 4,6-diamino-2-phenolindol dihydrochloride (DAPI). The images were photographed using Leica SP8 confocal microscopy with the Leica application suite X software program. Experiments were performed on three independent occasions.
Figure 8 Compound 10n depolymerises the microtubule network of MCF-7 breast cancer cells. Cells were treated with (A) vehicle control ([…]), (B) CA-4 (10 nM), (C) paclitaxel (1 μM) and compound 10n, (D) (50 nM), (E) (100 nM) and (F) (500 nM) for 16 h. […]

[2] = Homo sapiens, MCF7, 72 h, MCF-7, 72 h

Structure (SMILES) | IC50 (MCF-7 cells; [2]) | IC50 (MCF-7 cells; MCF-7, 72 h) | effect on microtubule network [1] | IC50 (MCF-7 cells; Homo sapiens, MCF7, 72 h)
COc1ccc([C@H]2[C@H](Cl)C(=O)N2c2cc(OC)c(OC)c(OC)c2)cc1 (relative stereo) [Compound 10e trans, Trans-3-chloro-1-(3,4,5-trimethoxyphenyl)-4-(4-methoxyphenyl) azetidin-2-one] | 56 ± 7 nM | – | – | –
COc1ccc(/C=C\c2cc(OC)c(OC)c(OC)c2)cc1O [CA-4, Combretastatin A-4] | 3.9 nM | 4 nM | extensive depolymerisation of tubulin | –
COc1ccc(C2C(Cl)C(=O)N2c2cc(OC)c(OC)c(OC)c2)cc1O (stereo not drawn) [Compound 10n, 3-Chloro-4-(3-hydroxy-4-methoxy-phenyl)-1-(3,4,5-trimethoxyphenyl)azetidin-2-one] | 17.5 ± 9 nM | 17 ± 9 nM | disorganised microtubule network | –
COc1ccc(C2N(c3cc(OC)c(OC)c(OC)c3)C(=O)C2(Cl)Cl)cc1O (stereo not drawn) [Compound 11n, 3,3-Dichloro-4-(3-hydroxy-4-methoxyphenyl)-1-(3,4,5-trimethoxyphenyl)azetidin-2-one] | – | – | – | 31 ± 4 nM
CCSc1ccc(C2C(Br)C(=O)N2c2cc(OC)c(OC)c(OC)c2)cc1 (stereo not drawn) [Compound 16d, 3-Bromo-4-(4-(ethylthio)phenyl)-1-(3,4,5-trimethoxyphenyl)azetidin-2-one] | 1100 ± 100 nM | – | – | –
